Source: ChEMBL document CHEMBL1201862, “PubChem BioAssay data set” (2004)
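How tested: cells in 96-well plates exposed to compound for 48 hours at five concentrations. The concentration for 50% growth inhibition is given as GI50.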 Active and inactive are the calls of the source. No stated cut-off is given here; in the data, active = GI50 up to about 1.1 µM and inactive = higher.

Columns and labels:
Assay in all cases: growth of human tumour cells (NCI), 48 h
IGROV-1 = tested on: IGROV-1
RXF 631 = tested on: RXF 631
ACHN = tested on: ACHN
SK-OV-3 = tested on: SK-OV-3
RXF 393 = tested on: RXF 393
A498 = tested on: A498
SF-268 = tested on: SF-268
COLO 205 = tested on: COLO 205
OVCAR-5 = tested on: OVCAR-5
XF498 = tested on: XF498
HOP-62 = tested on: HOP-62
786-0 = tested on: 786-0
SK-MEL-28 = tested on: SK-MEL-28
UACC-62 = tested on: UACC-62
Malme-3M = tested on: Malme-3M
SR = tested on: SR
RPMI-8226 = tested on: RPMI-8226
SN12C = tested on: SN12C
M19-MEL = tested on: M19-MEL
SF-539 = tested on: SF-539
SK-MEL-2 = tested on: SK-MEL-2
DMS-114 = tested on: DMS-114
KM12 = tested on: KM12
UO-31 = tested on: UO-31
HT-29 = tested on: HT-29
NCI-H522 = tested on: NCI-H522
OVCAR-3 = tested on: OVCAR-3
DLD-1 = tested on: DLD-1
NCI-H460 = tested on: NCI-H460
A549 = tested on: A549
OVCAR-8 = tested on: OVCAR-8
OVCAR-4 = tested on: OVCAR-4
KM-20L2 = tested on: KM-20L2
HOP-92 = tested on: HOP-92
HCT-116 = tested on: HCT-116
SNB-75 = tested on: SNB-75
NCI-H23 = tested on: NCI-H23
K562 = tested on: K562
M14 = tested on: M14
HCC 2998 = tested on: HCC 2998
SK-MEL-5 = tested on: SK-MEL-5
SNB-78 = tested on: SNB-78
HL-60 = tested on: HL-60
LXFL 529 = tested on: LXFL 529
SW-620 = tested on: SW-620
EKVX = tested on: EKVX
U-251 = tested on: U-251
UACC-257 = tested on: UACC-257
SF-295 = tested on: SF-295
TK-10 = tested on: TK-10
SNB-19 = tested on: SNB-19
DMS-273 = tested on: DMS-273
LOX IMVI = tested on: LOX IMVI
HOP-18 = tested on: HOP-18
HCT-15 = tested on: HCT-15
CCRF-CEM = tested on: CCRF-CEM
CAKI-1 = tested on: CAKI-1
MOLT-4 = tested on: MOLT-4
NCI-H226 = tested on: NCI-H226

## CCOC(=O)C1=C(C)N(NC(=O)Nc2ccccc2)C2(N)N(NC(=O)Nc3ccccc3)C(C)=C(C(=O)OCC)C12C(=O)OCC (configuration not stated)
IGROV-1
  GI50: > 100 µM (inactive)
RXF 631
  GI50: 51.9 µM (inactive)
ACHN
  GI50: 56.4 µM (inactive)
SK-OV-3
  GI50: 29.9 µM (inactive)
RXF 393
  GI50: 3.09 µM (inactive)
A498
  GI50: 28.2 µM (inactive)
SF-268
  GI50: 24.8 µM (inactive)
COLO 205
  GI50: 1.85 µM (inactive)
OVCAR-5
  GI50: > 100 µM (inactive)
XF498
  GI50: 12 µM (inactive)
HOP-62
  GI50: 28.6 µM (inactive)
786-0
  GI50: 45.3 µM (inactive)
SK-MEL-28
  GI50: 34.4 µM (inactive)
UACC-62
  GI50: 49.3 µM (inactive)
Malme-3M
  GI50: 33 µM (inactive)
SR
  GI50: 34 µM (inactive)
RPMI-8226
  GI50: > 100 µM (inactive)
SN12C
  GI50: 1.66 µM (inactive)
M19-MEL
  GI50: 43.3 µM (inactive)
SF-539
  GI50: 22.1 µM (inactive)
SK-MEL-2
  GI50: 52.7 µM (inactive)
DMS-114
  GI50: 25.5 µM (inactive)
KM12
  GI50: > 100 µM (inactive)
UO-31
  GI50: 61.7 µM (inactive)
HT-29
  GI50: 54.3 µM (inactive)
NCI-H522
  GI50: 70 µM (inactive)
OVCAR-3
  GI50: 49.2 µM (inactive)
DLD-1
  GI50: 53.8 µM (inactive)
NCI-H460
  GI50: 37.9 µM (inactive)
A549
  GI50: 38.3 µM (inactive)
OVCAR-8
  GI50: 35.9 µM (inactive)
OVCAR-4
  GI50: 29.5 µM (inactive)
KM-20L2
  GI50: 75.9 µM (inactive)
HOP-92
  GI50: 18.8 µM (inactive)
HCT-116
  GI50: 29.9 µM (inactive)
SNB-75
  GI50: 25.9 µM (inactive)
NCI-H23
  GI50: 64 µM (inactive)
K562
  GI50: > 100 µM (inactive)
M14
  GI50: 33.2 µM (inactive)
HCC 2998
  GI50: 27.4 µM (inactive)
SK-MEL-5
  GI50: 35.1 µM (inactive)
SNB-78
  GI50: 42.4 µM (inactive)
HL-60
  GI50: 35.2 µM (inactive)
LXFL 529
  GI50: 57 µM (inactive)
SW-620
  GI50: 69.7 µM (inactive)
EKVX
  GI50: > 100 µM (inactive)
U-251
  GI50: 33 µM (inactive)
UACC-257
  GI50: 67.3 µM (inactive)
SF-295
  GI50: 47.8 µM (inactive)
TK-10
  GI50: 80.4 µM (inactive)
SNB-19
  GI50: 38.9 µM (inactive)
DMS-273
  GI50: 41.9 µM (inactive)
LOX IMVI
  GI50: 36.2 µM (inactive)
HOP-18
  GI50: 26.7 µM (inactive)
HCT-15
  GI50: > 100 µM

## Cc1cccc(NC(=O)C(=O)C(C2OC(=O)c3ccccc32)[N+](=O)[O-])c1C (configuration not stated)
IGROV-1
  GI50: 9.82 µM (inactive)
RXF 631
  GI50: 5.98 µM (inactive)
ACHN
  GI50: 10.9 µM (inactive)
SK-OV-3
  GI50: 13.6 µM (inactive)
RXF 393
  GI50: 6.87 µM (inactive)
A498
  GI50: 15.7 µM (inactive)
SF-268
  GI50: 7.52 µM (inactive)
COLO 205
  GI50: 15.4 µM (inactive)
OVCAR-5
  GI50: 19.1 µM (inactive)
XF498
  GI50: 6.81 µM (inactive)
HOP-62
  GI50: 17.2 µM (inactive)
786-0
  GI50: 10.2 µM (inactive)
SK-MEL-28
  GI50: 12.6 µM (inactive)
UACC-62
  GI50: 10.9 µM (inactive)
Malme-3M
  GI50: 3.79 µM (inactive)
SR
  GI50: 3.13 µM (inactive)
SN12C
  GI50: 6.34 µM (inactive)
M19-MEL
  GI50: 1.87 µM (inactive)
SF-539
  GI50: 18.9 µM (inactive)
SK-MEL-2
  GI50: 5.06 µM (inactive)
DMS-114
  GI50: 2.86 µM (inactive)
KM12
  GI50: 12.8 µM (inactive)
UO-31
  GI50: 9.53 µM (inactive)
HT-29
  GI50: 16.7 µM (inactive)
NCI-H522
  GI50: 2 µM (inactive)
OVCAR-3
  GI50: 2.08 µM (inactive)
DLD-1
  GI50: 6.43 µM (inactive)
NCI-H460
  GI50: 6 µM (inactive)
A549
  GI50: 18.3 µM (inactive)
OVCAR-8
  GI50: 13.2 µM (inactive)
OVCAR-4
  GI50: 8.11 µM (inactive)
CCRF-CEM
  GI50: 3.52 µM (inactive)
KM-20L2
  GI50: 18.4 µM (inactive)
HCT-116
  GI50: 5.96 µM (inactive)
SNB-75
  GI50: 5.51 µM (inactive)
CAKI-1
  GI50: 7.43 µM (inactive)
NCI-H23
  GI50: 5.46 µM (inactive)
K562
  GI50: 4.42 µM (inactive)
M14
  GI50: 13.8 µM (inactive)
HCC 2998
  GI50: 13.8 µM (inactive)
SK-MEL-5
  GI50: 6.53 µM (inactive)
SNB-78
  GI50: 17.5 µM (inactive)
HL-60
  GI50: 2.37 µM (inactive)
LXFL 529
  GI50: 8.04 µM (inactive)
SW-620
  GI50: 5.57 µM (inactive)
EKVX
  GI50: 17.6 µM (inactive)
U-251
  GI50: 3.64 µM (inactive)
UACC-257
  GI50: 5.61 µM (inactive)
SF-295
  GI50: 14.9 µM (inactive)
TK-10
  GI50: 18 µM (inactive)
MOLT-4
  GI50: 2.99 µM (inactive)
NCI-H226
  GI50: 12.6 µM (inactive)
SNB-19
  GI50: 16.2 µM (inactive)
DMS-273
  GI50: 2.59 µM (inactive)
LOX IMVI
  GI50: 2.4 µM (inactive)
HOP-18
  GI50: 10.5 µM (inactive)
HCT-15
  GI50: 5.21 µM
